Assay results from US20150105252A1, “SUBSTITUTED PYRAZOLES AS HERBICIDES” (E I DU PONT DE NEMOURS AND COMPANY, priority 2013, published 2015).

Tests used:
pigweed [1] = test: Test A postemergence; format: in vivo, Amaranthus retroflexus
Summary of the method: (§1)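 Injury readout: eye-scored versus untreated controls, 0 to 100. Exposure period: ~10 days, greenhouse. Application: soil-directed spray over sown seed (pre) or spray on seedlings 2–10 cm tall with one or two leaves (post), compound carried in non-phytotoxic solvent including surfactant.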

pigweed [2] = test: Test A preemergence; format: in vivo, Amaranthus retroflexus; conditions: preemergence; for Pigweed plant response rating (0 to 100 scale): 125 g ai/ha, visual injury approx. 10 days after treatment; for Pigweed plant response rating: 500 g ai/ha, visual injury after approx. 10 days, 0 to 100 scale (0 no effect, 100 complete control)
Summary of the method: as §1

sedge, umbrella = test: Test B flood; format: in vivo, Cyperus difformis; conditions: 250 g ai/ha, visual rating on 0 to 100 scale (0 no effect, 100 complete control), 13 to 15 days
Summary of the method: (§2)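 Visual ratings on a 0–100 scale, where 0 means no effect and 100 means complete control, were assigned by comparison with controls 13 to 15 days after treatment. Compounds went into paddy water over 2-leaf plants flooded to 3 cm.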

ducksalad = test: Test B flood; format: in vivo, Heteranthera limosa; conditions: 250 g ai/ha, visual rating on 0 to 100 scale (0 no effect, 100 complete control), 13 to 15 days
Summary of the method: as §2

rice = test: Test B flood; format: in vivo, Oryza sativa; conditions: 250 g ai/ha, visual rating on 0 to 100 scale (0 no effect, 100 complete control), 13 to 15 days
Summary of the method: as §2

velvetleaf [3] = test: Test A postemergence; format: in vivo, Abutilon theophrasti
Summary of the method: as §1

barnyardgrass [4] = test: Test A preemergence; format: in vivo, Echinochloa crus-galli; conditions: preemergence
Summary of the method: as §1

corn [5] = test: Test A postemergence; format: in vivo, Zea mays
Summary of the method: as §1

wheat [6] = test: Test A postemergence; format: in vivo, Triticum aestivum
Summary of the method: as §1

crabgrass, large [7] = test: Test A postemergence; format: in vivo, Digitaria sanguinalis
Summary of the method: as §1

barnyardgrass [8] = test: Test A postemergence; format: in vivo, Echinochloa crus-galli
Summary of the method: as §1

morningglory [9] = test: Test A preemergence; format: in vivo, Ipomoea spp.; conditions: preemergence; for Morningglory plant response rating (0 to 100 scale): 125 g ai/ha, visual injury approx. 10 days after treatment; for Morningglory plant response rating: 500 g ai/ha, visual injury after approx. 10 days, 0 to 100 scale (0 no effect, 100 complete control)
Summary of the method: as §1

wheat [10] = test: Test A preemergence; format: in vivo, Triticum aestivum; conditions: preemergence; for Wheat plant response rating (0 to 100 scale): 125 g ai/ha, visual injury approx. 10 days after treatment; for Wheat plant response rating: 500 g ai/ha, visual injury after approx. 10 days, 0 to 100 scale (0 no effect, 100 complete control)
Summary of the method: as §1

corn [11] = test: Test A preemergence; format: in vivo, Zea mays; conditions: preemergence; for Corn plant response rating (0 to 100 scale): 125 g ai/ha, visual injury approx. 10 days after treatment; for Corn plant response rating: 500 g ai/ha, visual injury after approx. 10 days, 0 to 100 scale (0 no effect, 100 complete control)
Summary of the method: as §1

velvetleaf [12] = test: Test A preemergence; format: in vivo, Abutilon theophrasti; conditions: preemergence; for Velvetleaf plant response rating (0 to 100 scale): 125 g ai/ha, visual injury approx. 10 days after treatment; for Velvetleaf plant response rating: 500 g ai/ha, visual injury after approx. 10 days, 0 to 100 scale (0 no effect, 100 complete control)
Summary of the method: as §1

foxtail, giant [13] = test: Test A preemergence; format: in vivo, Setaria faberii; conditions: preemergence; for Foxtail, Giant plant response rating (0 to 100 scale): 125 g ai/ha, visual injury approx. 10 days after treatment; for Foxtail, Giant plant response rating: 500 g ai/ha, visual injury after approx. 10 days, 0 to 100 scale (0 no effect, 100 complete control)
Summary of the method: as §1

morningglory [14] = test: Test A postemergence; format: in vivo, Ipomoea spp.
Summary of the method: as §1

crabgrass, large [15] = test: Test A preemergence; format: in vivo, Digitaria sanguinalis; conditions: preemergence; for Crabgrass, Large plant response rating (0 to 100 scale): 125 g ai/ha, visual injury approx. 10 days after treatment; for Crabgrass, Large plant response rating: 500 g ai/ha, visual injury after approx. 10 days, 0 to 100 scale (0 no effect, 100 complete control)
Summary of the method: as §1

barnyardgrass [16] = test: Test B flood; format: in vivo, Echinochloa crus-galli; conditions: 250 g ai/ha, visual rating on 0 to 100 scale (0 no effect, 100 complete control), 13 to 15 days
Summary of the method: as §2

foxtail, giant [17] = test: Test A postemergence; format: in vivo, Setaria faberii
Summary of the method: as §1

[18] = Postemergence, 500 g ai/ha, 0 to 100 scale (0 no effect, 100 complete control)
[19] = postemergence, 125 g ai/ha, about 10 days, visual rating on 0 to 100 scale (0 no effect, 100 complete control)
[20] = 125 g ai/ha, visual injury, 0 to 100 scale, approx. 10 days
[21] = 500 g ai/ha, visual injury after approx. 10 days, 0 to 100 scale (0 no effect, 100 complete control)

| SMILES | Pigweed plant response rating (pigweed [1]; [18]) | Pigweed plant response rating (pigweed [1]; [19]) | Pigweed plant response rating (0 to 100 scale) (pigweed [2]) | Pigweed plant response rating (pigweed [2]) | Plant response rating, Sedge, Umbrella (sedge, umbrella) | Plant response rating, Ducksalad (ducksalad) | Plant response rating, Rice (rice) | Velvetleaf plant response rating (velvetleaf [3]; [18]) | Velvetleaf plant response rating (velvetleaf [3]; [19]) | Barnyardgrass plant response rating (barnyardgrass [4]; [20]) | Barnyardgrass plant response rating (barnyardgrass [4]; [21]) | Corn plant response rating (corn [5]; [18]) | Corn plant response rating (corn [5]; [19]) | Wheat plant response rating (wheat [6]; [18]) | Wheat plant response rating (wheat [6]; [19]) | Crabgrass, Large plant response rating (crabgrass, large [7]; [18]) | Crabgrass, Large plant response rating (crabgrass, large [7]; [19]) | Barnyardgrass plant response rating (barnyardgrass [8]; [18]) | Barnyardgrass plant response rating (barnyardgrass [8]; [19]) | Morningglory plant response rating (0 to 100 scale) (morningglory [9]) | other results |
| --- | --- | --- | --- | --- | --- | --- | --- | --- | --- | --- | --- | --- | --- | --- | --- | --- | --- | --- | --- | --- | --- |
| CCc1cc(C(=O)NC2CC2)nn1Cc1nc(C(F)(F)F)no1 [Compound 163] | 90 | 50 | 30 | 100 | 0 | 0 | 0 | 80 | 50 | 10 | 60 | 30 | 0 | 0 | 0 | 70 | 20 | 40 | 10 | 0 | Morningglory plant response rating (morningglory [9]): 70; Wheat plant response rating (0 to 100 scale) (wheat [10]): 0; Wheat plant response rating (wheat [10]): 10; Corn plant response rating (0 to 100 scale) (corn [11]): 0; Corn plant response rating (corn [11]): 0; Velvetleaf plant response rating (0 to 100 scale) (velvetleaf [12]): 10; Velvetleaf plant response rating (velvetleaf [12]): 50; Foxtail, Giant plant response rating (0 to 100 scale) (foxtail, giant [13]): 20; Foxtail, Giant plant response rating (foxtail, giant [13]): 70; Morningglory plant response rating (morningglory [14]; [18]): 90; Morningglory plant response rating (morningglory [14]; [19]): 30; Crabgrass, Large plant response rating (0 to 100 scale) (crabgrass, large [15]): 50; Crabgrass, Large plant response rating (crabgrass, large [15]): 100; Plant response rating, Barnyardgrass (barnyardgrass [16]): 0; Foxtail, Giant plant response rating (foxtail, giant [17]; [18]): 80; Foxtail, Giant plant response rating (foxtail, giant [17]; [19]): 10 |
| CCCNC(=O)c1cc(CC)n(Cc2nc(C(F)(F)F)no2)n1 [Compound 164] | 40 | 20 | 20 | 80 | 0 | 0 | 0 | 60 | 20 | 10 | 80 | 40 | 10 | 20 | 0 | 60 | 10 | 40 | 10 | 0 | Morningglory plant response rating (morningglory [9]): 80; Wheat plant response rating (0 to 100 scale) (wheat [10]): 0; Wheat plant response rating (wheat [10]): 20; Corn plant response rating (0 to 100 scale) (corn [11]): 0; Corn plant response rating (corn [11]): 50; Velvetleaf plant response rating (0 to 100 scale) (velvetleaf [12]): 0; Velvetleaf plant response rating (velvetleaf [12]): 10; Foxtail, Giant plant response rating (0 to 100 scale) (foxtail, giant [13]): 10; Foxtail, Giant plant response rating (foxtail, giant [13]): 70; Morningglory plant response rating (morningglory [14]; [18]): 70; Morningglory plant response rating (morningglory [14]; [19]): 50; Crabgrass, Large plant response rating (0 to 100 scale) (crabgrass, large [15]): 80; Crabgrass, Large plant response rating (crabgrass, large [15]): 90; Plant response rating, Barnyardgrass (barnyardgrass [16]): 0; Foxtail, Giant plant response rating (foxtail, giant [17]; [18]): 40; Foxtail, Giant plant response rating (foxtail, giant [17]; [19]): 10 |
| CCc1cc(-c2ccc(C(F)(F)F)cc2)nn1C(=O)c1ccnc(C(F)(F)F)c1 [Compound 165] | 80 | 30 | 10 | 20 | 0 | 0 | 0 | 20 | 10 | 0 | 0 | 10 | 10 | 10 | 0 | 20 | 10 | 10 | 10 | 0 | Morningglory plant response rating (morningglory [9]): 0; Wheat plant response rating (0 to 100 scale) (wheat [10]): 0; Wheat plant response rating (wheat [10]): 0; Corn plant response rating (0 to 100 scale) (corn [11]): 0; Corn plant response rating (corn [11]): 0; Velvetleaf plant response rating (0 to 100 scale) (velvetleaf [12]): 0; Velvetleaf plant response rating (velvetleaf [12]): 0; Foxtail, Giant plant response rating (0 to 100 scale) (foxtail, giant [13]): 0; Foxtail, Giant plant response rating (foxtail, giant [13]): 0; Morningglory plant response rating (morningglory [14]; [18]): 20; Morningglory plant response rating (morningglory [14]; [19]): 10; Crabgrass, Large plant response rating (0 to 100 scale) (crabgrass, large [15]): 0; Crabgrass, Large plant response rating (crabgrass, large [15]): 0; Plant response rating, Barnyardgrass (barnyardgrass [16]): 0; Foxtail, Giant plant response rating (foxtail, giant [17]; [18]): 10; Foxtail, Giant plant response rating (foxtail, giant [17]; [19]): 10 |
| CCCCNC(=O)c1cc(Cl)n(Cc2cccc(C(F)(F)F)c2)n1 [Compound 171] | 50 | 20 | 0 | 0 | 0 | 0 | 0 | 30 | 20 | 0 | 0 | 20 | 0 | 0 | 0 | 30 | 10 | 20 | 0 | 0 | Morningglory plant response rating (morningglory [9]): 0; Wheat plant response rating (0 to 100 scale) (wheat [10]): 0; Wheat plant response rating (wheat [10]): 0; Corn plant response rating (0 to 100 scale) (corn [11]): 0; Corn plant response rating (corn [11]): 0; Velvetleaf plant response rating (0 to 100 scale) (velvetleaf [12]): 0; Velvetleaf plant response rating (velvetleaf [12]): 0; Foxtail, Giant plant response rating (0 to 100 scale) (foxtail, giant [13]): 0; Foxtail, Giant plant response rating (foxtail, giant [13]): 0; Morningglory plant response rating (morningglory [14]; [18]): 30; Morningglory plant response rating (morningglory [14]; [19]): 0; Crabgrass, Large plant response rating (0 to 100 scale) (crabgrass, large [15]): 0; Crabgrass, Large plant response rating (crabgrass, large [15]): 0; Plant response rating, Barnyardgrass (barnyardgrass [16]): 0; Foxtail, Giant plant response rating (foxtail, giant [17]; [18]): 20; Foxtail, Giant plant response rating (foxtail, giant [17]; [19]): 10 |
| O=C(NC1CC1)c1cc(Cl)n(Cc2cccc(C(F)(F)F)c2)n1 [Compound 174] | 90 | 20 | 20 | 90 | 0 | 0 | 0 | 10 | 0 | 0 | 0 | 10 | 0 | 0 | 0 | 10 | 0 | 10 | 0 | 0 | Morningglory plant response rating (morningglory [9]): 0; Wheat plant response rating (0 to 100 scale) (wheat [10]): 0; Wheat plant response rating (wheat [10]): 0; Corn plant response rating (0 to 100 scale) (corn [11]): 0; Corn plant response rating (corn [11]): 0; Velvetleaf plant response rating (0 to 100 scale) (velvetleaf [12]): 0; Velvetleaf plant response rating (velvetleaf [12]): 0; Foxtail, Giant plant response rating (0 to 100 scale) (foxtail, giant [13]): 0; Foxtail, Giant plant response rating (foxtail, giant [13]): 20; Morningglory plant response rating (morningglory [14]; [18]): 10; Morningglory plant response rating (morningglory [14]; [19]): 0; Crabgrass, Large plant response rating (0 to 100 scale) (crabgrass, large [15]): 10; Crabgrass, Large plant response rating (crabgrass, large [15]): 40; Plant response rating, Barnyardgrass (barnyardgrass [16]): 0; Foxtail, Giant plant response rating (foxtail, giant [17]; [18]): 0; Foxtail, Giant plant response rating (foxtail, giant [17]; [19]): 0 |
